This is an account of results in US20110263577A1 (priority 2008, published 2011).

Counter-ions that a name gives are not always drawn.

Sequence of α7-subtype of nicotinic receptors (Q05941 23-502): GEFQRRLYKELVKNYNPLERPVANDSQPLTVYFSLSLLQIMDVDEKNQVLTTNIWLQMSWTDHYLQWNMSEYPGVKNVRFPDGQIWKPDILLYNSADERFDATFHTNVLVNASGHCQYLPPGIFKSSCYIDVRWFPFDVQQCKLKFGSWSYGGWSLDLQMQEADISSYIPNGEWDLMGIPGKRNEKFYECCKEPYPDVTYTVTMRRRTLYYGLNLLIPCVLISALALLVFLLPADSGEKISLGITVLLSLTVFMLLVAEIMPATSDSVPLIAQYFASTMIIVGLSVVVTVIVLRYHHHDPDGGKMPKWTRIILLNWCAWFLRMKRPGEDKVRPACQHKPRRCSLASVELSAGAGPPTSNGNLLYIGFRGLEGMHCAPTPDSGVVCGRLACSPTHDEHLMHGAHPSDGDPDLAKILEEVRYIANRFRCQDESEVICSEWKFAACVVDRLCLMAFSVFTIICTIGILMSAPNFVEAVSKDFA

This assay addresses α7-subtype of nicotinic receptors (Rattus norvegicus, UniProt Q05941). The assay can be described thus: biochemical. It is filed as binding.
As to `c1ccc2c(c1)OC(c1nnc(N3CCN4CCC3CC4)o1)O2` [Compound 2, 4-(5-Benzo[1,3]-dioxol-2-yl-[1,3,4]oxadiazol-2-yl)-1,4-diaza-bicyclo[3.2.2]nonane fumaric acid salt], half-maximal inhibition (IC50) required 750 nM. That is a sub-micromolar value. As for `c1ccc2c(c1)OCC(c1nnc(N3CCN4CCC3CC4)o1)O2` (stereo not drawn) [Compound 3, 4-[5-(2,3-Dihydro-benzo[1,4]dioxin-2-yl)-[1,3,4]oxadiazol-2-yl]-1,4-diaza-bicyclo[3.2.2]nonane fumaric acid salt], the IC50 (usually the concentration that inhibits the measured activity by half) stood at 1800 nM.

Compound `c1ccc2c(c1)CC(c1nnc(N3CCN4CCC3CC4)o1)C2` [Compound 1, 4-(5-Indan-2-yl-[1,3,4]oxadiazol-2-yl)-1,4-diaza-bicyclo[3.2.2]nonane fumaric acid salt] gave an IC50 of 610 nM.
